Assays:
PANC-1 cells = test: MTS cytotoxicity assay, PANC-1; assay type: cell-based, human; conditions: for IC50: Homo sapiens, PANC-1, 72 h incubation, MTS; for Selectivity index, PANC-1: NHDF vs PANC-1
Source text: (§1) M. Rusin from the Maria Sklodowska-Curie Memorial Cancer Centre and Institute of Oncology in Gliwice, Poland. […] G. Kramer-Marek from the Institute of Cancer Research in London, United Kingdom. The human suspension chronic myelogenous leukemia cell line K562 and pancreas ductal adenocarcinoma cell line PANC-1 were purchased from Sigma-Aldrich (St. Louis, MO, USA), while the normal human dermal fibroblasts cell line NHDF were purchased from PromoCell. […] Each medium contained a combination of two antibiotics: penicillin and streptomycin (1% v/v; Gibco). All of these cell lines were grown under standard conditions at 37 °C with a 5% CO2 humidified atmosphere. Moreover, all of the cell lines were routinely tested for mycoplasma using the PCR technique with specific Mycoplasma primers to confirm that there was no contamination.
(§2) The assay was performed following a 72 h incubation with the various concentrations of the tested compounds. Then, 100 µL DMEM without phenol red with 20 µL of the CellTiter 96®AQueous One Solution-MTS (Promega, Promega, WI, USA) was added to each well and incubated for 1 h or 3 h (PANC-1) at 37 °C. The optical densities of the samples were measured at 490 nm using a multi-plate reader (Synergy 4, BioTek, Winooski, VT, USA). […] Each individual compound was tested in triplicate in a single experiment with each experiment being performed three or four times.

K562 cells = test: MTS cytotoxicity assay, K562; assay type: cell-based, human; conditions: for IC50: Homo sapiens, K562, 72 h incubation, MTS; for Selectivity index, K562: normal fibroblasts NHDF vs K562
Source text: as §1, §2

A549 cells = test: MTS cytotoxicity assay, A549; assay type: cell-based, human; conditions: for IC50: Homo sapiens, A549, 72 h, A549, 72 h incubation, MTS; for Selectivity index, A549: NHDF vs A549
Source text: as §1, §2

Lyn B = molecular target: T1, Lyn B (Homo sapiens, UniProt P07948); test: Tyrosine kinase assay (Kinase Selectivity TK-2, ADP-Glo); assay type: biochemical; conditions: read-out: Inhibitory Effect of the Tyrosine Kinase Activity, Lyn B
T1 construct: purchased Promega
T1 sequence (P07948 1-491 isoform P07948-2): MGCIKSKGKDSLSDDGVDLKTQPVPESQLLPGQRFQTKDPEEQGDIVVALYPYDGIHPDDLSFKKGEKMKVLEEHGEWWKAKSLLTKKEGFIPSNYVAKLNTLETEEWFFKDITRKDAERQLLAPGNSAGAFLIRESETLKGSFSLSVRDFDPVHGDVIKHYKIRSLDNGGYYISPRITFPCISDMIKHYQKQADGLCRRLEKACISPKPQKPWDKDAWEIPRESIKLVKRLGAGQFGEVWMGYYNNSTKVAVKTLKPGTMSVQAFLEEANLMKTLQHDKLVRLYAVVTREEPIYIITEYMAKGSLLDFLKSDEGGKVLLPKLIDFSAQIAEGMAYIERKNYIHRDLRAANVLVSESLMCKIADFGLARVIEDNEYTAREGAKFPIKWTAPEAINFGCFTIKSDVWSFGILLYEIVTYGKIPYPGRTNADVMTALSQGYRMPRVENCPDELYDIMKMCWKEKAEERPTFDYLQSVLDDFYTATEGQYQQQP
Description: (§3) Assays using the Kinase Selectivity TK-2 profiling systems and ADP-Glo Kinase Assay (both from Promega) were performed to determine the inhibition of the non-receptor tyrosine kinases. The protocol was previously designed and described by our group in reports. The experiments were performed at least four times. The data are expressed as the percentage of the inhibition activity of tyrosine kinase after treatment with the tested derivatives.

Fyn A = molecular target: T2, Fyn A (Homo sapiens, UniProt P06241); test: as above; assay type: biochemical; conditions: read-out: Inhibitory Effect of the Tyrosine Kinase Activity, Fyn A
T2 construct: purchased Promega
T2 sequence (P06241 whole entry): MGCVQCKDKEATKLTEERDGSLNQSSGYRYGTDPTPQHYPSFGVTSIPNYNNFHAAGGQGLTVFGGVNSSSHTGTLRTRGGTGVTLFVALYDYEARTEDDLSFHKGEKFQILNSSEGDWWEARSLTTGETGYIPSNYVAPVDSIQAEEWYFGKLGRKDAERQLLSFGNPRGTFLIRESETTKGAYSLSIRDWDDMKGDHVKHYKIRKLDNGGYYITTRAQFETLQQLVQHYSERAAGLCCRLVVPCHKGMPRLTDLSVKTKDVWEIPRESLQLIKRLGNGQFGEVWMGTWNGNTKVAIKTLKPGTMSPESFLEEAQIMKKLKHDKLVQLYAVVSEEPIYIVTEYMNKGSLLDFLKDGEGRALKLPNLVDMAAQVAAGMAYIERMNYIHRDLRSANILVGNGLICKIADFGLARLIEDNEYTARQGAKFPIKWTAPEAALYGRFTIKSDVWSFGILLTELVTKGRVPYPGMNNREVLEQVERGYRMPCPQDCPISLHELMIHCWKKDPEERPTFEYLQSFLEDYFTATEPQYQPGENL
Description: as §3

BTK = molecular target: T3, BTK (Homo sapiens, UniProt Q06187); test: as above; assay type: biochemical; conditions: read-out: Inhibitory Effect of the Tyrosine Kinase Activity, BTK
T3 construct: purchased Promega
T3 sequence (Q06187 whole entry): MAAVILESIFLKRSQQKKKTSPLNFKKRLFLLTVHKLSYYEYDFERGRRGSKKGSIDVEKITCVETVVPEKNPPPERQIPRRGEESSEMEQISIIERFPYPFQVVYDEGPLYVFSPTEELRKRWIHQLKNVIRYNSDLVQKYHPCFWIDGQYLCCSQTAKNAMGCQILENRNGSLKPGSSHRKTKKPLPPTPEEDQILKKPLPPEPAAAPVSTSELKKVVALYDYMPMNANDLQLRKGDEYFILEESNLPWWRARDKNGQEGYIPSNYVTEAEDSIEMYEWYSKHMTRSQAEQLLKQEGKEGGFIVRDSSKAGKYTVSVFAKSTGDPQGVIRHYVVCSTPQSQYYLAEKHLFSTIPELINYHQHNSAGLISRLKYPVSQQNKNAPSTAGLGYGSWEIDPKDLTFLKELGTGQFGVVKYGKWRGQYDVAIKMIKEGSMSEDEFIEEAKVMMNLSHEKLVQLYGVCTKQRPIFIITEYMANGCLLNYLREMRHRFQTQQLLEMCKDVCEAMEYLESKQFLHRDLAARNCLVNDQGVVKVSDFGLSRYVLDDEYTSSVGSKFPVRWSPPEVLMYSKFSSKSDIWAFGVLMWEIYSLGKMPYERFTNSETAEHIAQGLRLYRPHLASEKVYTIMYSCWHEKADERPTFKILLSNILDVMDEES
Description: as §3

ABL1 = molecular target: T4, ABL1 (Homo sapiens, UniProt P00519); test: as above; assay type: biochemical; conditions: read-out: Inhibitory Effect of the Tyrosine Kinase Activity, ABL1
T4 construct: purchased Promega
T4 sequence (P00519 whole entry): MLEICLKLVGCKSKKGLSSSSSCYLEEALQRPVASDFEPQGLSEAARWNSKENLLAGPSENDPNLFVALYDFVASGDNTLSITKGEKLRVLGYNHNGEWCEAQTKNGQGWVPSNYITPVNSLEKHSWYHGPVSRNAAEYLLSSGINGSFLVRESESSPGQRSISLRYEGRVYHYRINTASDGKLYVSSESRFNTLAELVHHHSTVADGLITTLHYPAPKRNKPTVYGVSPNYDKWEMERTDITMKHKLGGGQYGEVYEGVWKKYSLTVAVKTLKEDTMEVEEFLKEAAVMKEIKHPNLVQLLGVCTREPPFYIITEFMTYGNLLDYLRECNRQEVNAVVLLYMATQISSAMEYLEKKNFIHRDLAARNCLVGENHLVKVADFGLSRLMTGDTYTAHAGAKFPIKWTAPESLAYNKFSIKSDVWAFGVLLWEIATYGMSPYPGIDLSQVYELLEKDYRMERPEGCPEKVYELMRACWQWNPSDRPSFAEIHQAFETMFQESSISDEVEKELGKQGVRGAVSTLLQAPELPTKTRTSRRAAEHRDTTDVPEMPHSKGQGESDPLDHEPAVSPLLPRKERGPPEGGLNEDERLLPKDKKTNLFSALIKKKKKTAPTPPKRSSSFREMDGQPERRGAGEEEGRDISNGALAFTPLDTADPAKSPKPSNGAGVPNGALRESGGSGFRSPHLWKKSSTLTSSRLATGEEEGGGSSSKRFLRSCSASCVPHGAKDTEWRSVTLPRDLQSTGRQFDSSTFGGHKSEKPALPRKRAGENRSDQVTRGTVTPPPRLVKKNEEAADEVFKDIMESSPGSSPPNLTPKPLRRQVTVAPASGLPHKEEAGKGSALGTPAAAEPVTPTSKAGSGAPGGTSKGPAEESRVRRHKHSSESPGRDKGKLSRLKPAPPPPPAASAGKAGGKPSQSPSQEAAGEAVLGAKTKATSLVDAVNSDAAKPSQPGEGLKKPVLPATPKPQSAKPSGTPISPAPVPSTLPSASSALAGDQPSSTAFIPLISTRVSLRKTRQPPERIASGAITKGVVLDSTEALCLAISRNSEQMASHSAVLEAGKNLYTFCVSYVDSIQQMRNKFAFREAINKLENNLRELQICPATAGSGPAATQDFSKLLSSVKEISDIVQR
Description: as §3

CSK = molecular target: T5, CSK (Homo sapiens, UniProt P41240); test: as above; assay type: biochemical; conditions: read-out: Inhibitory Effect of the Tyrosine Kinase Activity, CSK
T5 construct: purchased Promega
T5 sequence (P41240 whole entry): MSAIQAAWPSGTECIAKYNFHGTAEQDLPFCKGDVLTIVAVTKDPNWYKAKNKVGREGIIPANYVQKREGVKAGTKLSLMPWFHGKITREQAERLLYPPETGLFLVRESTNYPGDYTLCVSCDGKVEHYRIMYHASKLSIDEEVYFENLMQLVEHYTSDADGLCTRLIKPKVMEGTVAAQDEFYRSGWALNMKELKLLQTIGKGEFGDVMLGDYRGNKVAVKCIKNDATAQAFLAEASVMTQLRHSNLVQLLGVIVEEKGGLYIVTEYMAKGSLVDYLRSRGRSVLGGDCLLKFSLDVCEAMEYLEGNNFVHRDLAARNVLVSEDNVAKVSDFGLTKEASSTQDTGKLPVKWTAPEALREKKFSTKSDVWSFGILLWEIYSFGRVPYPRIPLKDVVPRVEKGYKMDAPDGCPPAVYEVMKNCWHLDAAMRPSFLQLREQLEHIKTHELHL
Description: as §3

Lck = molecular target: T6, Lck (Homo sapiens, UniProt P06239); test: as above; assay type: biochemical; conditions: read-out: Inhibitory Effect of the Tyrosine Kinase Activity, Lck
T6 construct: purchased Promega
T6 sequence (P06239 whole entry): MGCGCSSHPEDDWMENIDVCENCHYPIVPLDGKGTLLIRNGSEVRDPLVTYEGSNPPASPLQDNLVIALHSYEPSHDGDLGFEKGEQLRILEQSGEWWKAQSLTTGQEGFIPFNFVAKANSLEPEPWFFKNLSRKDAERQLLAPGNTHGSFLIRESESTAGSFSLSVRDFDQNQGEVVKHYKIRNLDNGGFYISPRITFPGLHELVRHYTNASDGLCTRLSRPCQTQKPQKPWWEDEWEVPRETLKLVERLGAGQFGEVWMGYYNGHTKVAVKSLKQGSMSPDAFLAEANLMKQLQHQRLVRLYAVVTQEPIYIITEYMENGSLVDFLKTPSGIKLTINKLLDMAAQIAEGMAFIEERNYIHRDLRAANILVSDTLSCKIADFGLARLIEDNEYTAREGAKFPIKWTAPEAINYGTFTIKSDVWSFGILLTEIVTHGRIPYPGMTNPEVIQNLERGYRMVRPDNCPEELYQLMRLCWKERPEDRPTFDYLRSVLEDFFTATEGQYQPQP
Description: as §3

Src = molecular target: T7, Src (Homo sapiens, UniProt P12931); test: as above; assay type: biochemical; conditions: read-out: Inhibitory Effect of the Tyrosine Kinase Activity, Src
T7 construct: purchased Promega
T7 sequence (P12931 whole entry): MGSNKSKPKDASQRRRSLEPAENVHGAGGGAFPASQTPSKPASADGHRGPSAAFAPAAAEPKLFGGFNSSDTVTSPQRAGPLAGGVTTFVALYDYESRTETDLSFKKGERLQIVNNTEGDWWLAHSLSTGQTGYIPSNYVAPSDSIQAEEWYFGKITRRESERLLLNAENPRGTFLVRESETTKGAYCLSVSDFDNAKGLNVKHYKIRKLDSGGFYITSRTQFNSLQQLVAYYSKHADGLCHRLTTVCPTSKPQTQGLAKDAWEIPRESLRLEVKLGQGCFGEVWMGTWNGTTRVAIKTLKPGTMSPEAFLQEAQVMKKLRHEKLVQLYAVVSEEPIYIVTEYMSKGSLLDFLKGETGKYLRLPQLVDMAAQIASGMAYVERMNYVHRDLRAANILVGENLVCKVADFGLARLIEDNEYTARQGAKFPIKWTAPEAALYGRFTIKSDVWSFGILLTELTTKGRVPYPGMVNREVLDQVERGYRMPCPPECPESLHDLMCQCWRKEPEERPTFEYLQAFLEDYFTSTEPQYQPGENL
Description: as §3

BRK = molecular target: T8, BRK (Homo sapiens, UniProt Q13882); test: as above; assay type: biochemical; conditions: read-out: Inhibitory Effect of the Tyrosine Kinase Activity, BRK
T8 construct: purchased Promega
T8 sequence (Q13882 whole entry): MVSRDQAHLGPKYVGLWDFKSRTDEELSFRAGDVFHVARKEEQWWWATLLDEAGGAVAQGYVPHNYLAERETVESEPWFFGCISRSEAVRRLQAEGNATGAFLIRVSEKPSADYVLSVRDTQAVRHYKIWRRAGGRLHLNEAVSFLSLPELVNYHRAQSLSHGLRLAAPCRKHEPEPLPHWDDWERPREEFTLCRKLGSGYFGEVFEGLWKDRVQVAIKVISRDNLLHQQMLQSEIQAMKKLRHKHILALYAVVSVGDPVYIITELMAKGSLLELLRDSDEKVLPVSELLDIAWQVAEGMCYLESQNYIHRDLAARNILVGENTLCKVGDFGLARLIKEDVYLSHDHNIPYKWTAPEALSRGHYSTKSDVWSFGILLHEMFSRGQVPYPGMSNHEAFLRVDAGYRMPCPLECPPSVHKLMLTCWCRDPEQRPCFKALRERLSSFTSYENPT
Description: as §3

U-251 cells = test: MTS cytotoxicity assay, U-251; assay type: cell-based, human; conditions: for IC50: Homo sapiens, U-251, 72 h incubation, MTS; for Selectivity index, U-251: NHDF vs U-251
Source text: as §1, §2

HCT 116 p53^−/− cells = test: MTS cytotoxicity assay, HCT 116 p53-/-; assay type: cell-based, human; conditions: for IC50: Homo sapiens, HCT 116 p53^−/−, 72 h incubation, MTS; for Selectivity index, HCT 116 p53 −/−: NHDF vs HCT 116 p53 −/−
Source text: as §1, §2

MCF-7 cells = test: MTS cytotoxicity assay, MCF-7; assay type: cell-based, human; conditions: for IC50: Homo sapiens, MCF7, MCF-7, 72 h incubation, MTS; for Selectivity index, MCF-7: NHDF vs MCF-7
Source text: as §1, §2

HCT 116 p53^+/+ cells = test: MTS cytotoxicity assay, HCT 116 p53+/+; assay type: cell-based, human; conditions: for IC50: Homo sapiens, HCT 116 p53^+/+, 72 h incubation, MTS; for Selectivity index, HCT 116 p53+/+: NHDF vs HCT 116 p53+/+
Source text: as §1, §2

NHDF cells = test: MTS cytotoxicity assay, normal fibroblasts NHDF; assay type: cell-based; conditions: NHDF normal human fibroblasts, 72 h incubation
Source text: as §1, §2

Row | Structure (SMILES) | IC50 (PANC-1 cells) | Selectivity index, PANC-1 (PANC-1 cells) | IC50 (K562 cells) | Selectivity index, K562 (K562 cells) | IC50 (A549 cells) | Selectivity index, A549 (A549 cells) | inhibition at 0.5 µM (Lyn B) | inhibition at 0.5 µM (Fyn A) | inhibition at 0.5 µM (BTK) | inhibition at 0.5 µM (ABL1) | inhibition at 0.5 µM (CSK) | inhibition at 0.5 µM (Lck) | inhibition at 0.5 µM (Src) | inhibition at 0.5 µM (BRK) | IC50 (U-251 cells) | Selectivity index, U-251 (U-251 cells) | IC50 (HCT 116 p53^−/− cells) | Selectivity index, HCT 116 p53 −/− (HCT 116 p53^−/− cells) | IC50 (MCF-7 cells) | Selectivity index, MCF-7 (MCF-7 cells) | other results
1 | COc1ccccc1/C=C/c1nc(OS(=O)(=O)c2ccc3c(c2)OCO3)c2ccccc2n1 [BS1, 2-((E)-2-(2-methoxyphenyl)ethenyl)quinazolin-4-yl 1,3-benzodioxole-5-sulfonate] | 3980 ± 597 nM | 3.15 | 172 ± 34 nM | 72.91 | > 25000 nM | 1.00 | 0% | 23.7% | 18.8% | 28.4% | 0% | 25.8% | 0.19% | 15.3% | 1900 ± 649 nM | 6.61 | 563 ± 121 nM | 22.27 | 8320 ± 1940 nM | 1.51 | IC50 (HCT 116 p53^+/+ cells): 880 ± 86 nM; Selectivity index, HCT 116 p53+/+ (HCT 116 p53^+/+ cells): 14.25; IC50 (NHDF cells): 12500 ± 855 nM
2 | COc1ccccc1/C=C/c1nc(OS(=O)(=O)c2ccc(C)cc2)c2ccccc2n1 [BS4, 2-((E)-2-(2-methoxyphenyl)ethenyl)quinazolin-4-yl 4-methylbenzenesulfonate] | 235 ± 42 nM | 106.38 | 173 ± 31 nM | 144.51 | 11300 ± 1760 nM | 2.20 | 0% | 3.51% | 26.9% | 0% | 28.3% | 19.5% | 0% | 35.5% | 1910 ± 214 nM | 13.11 | 3720 ± 487 nM | 6.71 | 9130 ± 2050 nM | 2.74 | IC50 (HCT 116 p53^+/+ cells): 1570 ± 357 nM; Selectivity index, HCT 116 p53+/+ (HCT 116 p53^+/+ cells): 15.95; IC50 (NHDF cells): > 25000 nM
3 | COc1ccccc1/C=C/c1nc(OS(=O)(=O)c2cc3c(cc2Br)OCO3)c2ccccc2n1 [BS2, 2-((E)-2-(2-methoxyphenyl)ethenyl)quinazolin-4-yl 6-bromo-1,3-benzodioxole-5-sulfonate] | 2900 ± 622 nM | 5.39 | 246 ± 55 nM | 63.70 | > 25000 nM | 1.00 | 38% | 0% | 40.2% | 0% | 34.2% | 9.93% | 26.3% | 9.33% | 2300 ± 234 nM | 6.80 | 1310 ± 290 nM | 11.94 | 16800 ± 2060 nM | 0.93 | IC50 (HCT 116 p53^+/+ cells): 1200 ± 132 nM; Selectivity index, HCT 116 p53+/+ (HCT 116 p53^+/+ cells): 13.06; IC50 (NHDF cells): 15700 ± 1410 nM

— publication PMC8068801, “Novel Benzenesulfonate Scaffolds with a High Anticancer Activity and G2/M Cell Cycle Arrest” (Cancers, 2021)
